Test results published in PubChem BioAssay (NCI).
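Interpolation was linear, between the two tested concentrations surrounding the appropriate level; five concentrations were tested over 48 hours in 96-well plates. GI50 = concentration required for 50% inhibition of growth. TGI marks complete inhibition of growth.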

Tests used:
Test in all cases: inhibition of tumour cell growth, NCI panel, 48 h
[1] = test system: HCT-116 colon
[2] = test system: SK-OV-3 ovarian
[3] = test system: UACC-257 melanoma
[4] = test system: SN12C renal
[5] = test system: SW-620 colon
[6] = test system: MOLT-4 leukemia
[7] = test system: RPMI-8226 leukemia
[8] = test system: SNB-75 CNS
[9] = test system: HS 578T breast
[10] = test system: SR leukemia
[11] = test system: CCRF-CEM leukemia
[12] = test system: LOX IMVI melanoma
[13] = test system: ACHN renal
[14] = test system: UO-31 renal
[15] = test system: A549 NSCLC
[16] = test system: SK-MEL-28 melanoma
[17] = test system: OVCAR-8 ovarian
[18] = test system: NCI/ADR-RES ovarian
[19] = test system: OVCAR-5 ovarian
[20] = test system: MDA-MB-231 breast
[21] = test system: TK-10 renal
[22] = test system: M14 melanoma
[23] = test system: SF-295 CNS
[24] = test system: IGROV1 ovarian
[25] = test system: KM12 colon
[26] = test system: RXF 393 renal
[27] = test system: K-562 leukemia
[28] = test system: A498 renal
[29] = test system: HOP-92 NSCLC
[30] = test system: DU-145 prostate
[31] = test system: NCI-H23 lung
[32] = test system: MDA-MB-435
[33] = test system: HCT-15 colon
[34] = test system: OVCAR-3 ovarian
[35] = test system: OVCAR-4 ovarian
[36] = test system: U251 CNS
[37] = test system: 786-0 renal
[38] = test system: SK-MEL-5 melanoma
[39] = test system: HCC-2998 colon
[40] = test system: NCI-H226 lung
[41] = test system: SF-268 CNS
[42] = test system: BT-549 breast
[43] = test system: SF-539 CNS
[44] = test system: HOP-62 NSCLC
[45] = test system: NCI-H460 lung
[46] = test system: UACC-62 melanoma
[47] = test system: T-47D breast
[48] = test system: MALME-3M melanoma
[49] = test system: COLO 205 colon
[50] = test system: PC-3 prostate
[51] = test system: SNB-19 CNS
[52] = test system: HL-60(TB) leukemia
[53] = test system: NCI-H522 lung
[54] = test system: CAKI-1 renal
[55] = test system: MCF7 breast
[56] = test system: HT29 colon
[57] = test system: SK-MEL-2 melanoma
[58] = test system: EKVX NSCLC

## CCOC(=O)c1cnc2c(C)cccc2c1Nc1ccc(C(C)=O)cc1
[1]
  GI50: 14.2 µM
  TGI: > 100 µM
[2]
  GI50: 75.8 µM
  TGI: > 100 µM
[3]
  GI50: 79.9 µM
  TGI: > 100 µM
[4]
  GI50: 24.9 µM
  TGI: > 100 µM
[5]
  GI50: 92.6 µM
  TGI: > 100 µM
[6]
  GI50: 43.6 µM
  TGI: > 100 µM
[7]
  GI50: 30.9 µM
  TGI: > 100 µM
[8]
  GI50: 15.4 µM
  TGI: 51 µM
[9]
  GI50: 15.4 µM
  TGI: 58.4 µM
[10]
  GI50: 60.8 µM
  TGI: > 100 µM
[11]
  GI50: > 100 µM
  TGI: > 100 µM
[12]
  GI50: 47 µM
  TGI: > 100 µM
[13]
  GI50: 33.5 µM
  TGI: > 100 µM
[14]
  GI50: 13.5 µM
  TGI: > 100 µM
[15]
  GI50: 38.8 µM
  TGI: > 100 µM
[16]
  GI50: 50.2 µM
  TGI: > 100 µM
[17]
  GI50: 33.8 µM
  TGI: > 100 µM
[18]
  GI50: 16.5 µM
  TGI: 72.5 µM
[19]
  GI50: 34.6 µM
  TGI: > 100 µM
[20]
  GI50: 19.7 µM
  TGI: > 100 µM
[21]
  GI50: 32.8 µM
  TGI: 82.9 µM
[22]
  GI50: 77.8 µM
  TGI: > 100 µM
[23]
  GI50: 36.2 µM
  TGI: > 100 µM
[24]
  GI50: 25.5 µM
  TGI: > 100 µM
[25]
  GI50: 51.2 µM
  TGI: > 100 µM
[26]
  GI50: 4.23 µM
  TGI: 63.8 µM
[27]
  GI50: > 100 µM
  TGI: > 100 µM
[28]
  GI50: 11.9 µM
  TGI: 63.4 µM
[29]
  GI50: 8.95 µM
  TGI: 36.9 µM
[30]
  GI50: 33.3 µM
  TGI: > 100 µM
[31]
  GI50: 28.5 µM
  TGI: > 100 µM
[32]
  GI50: > 100 µM
  TGI: > 100 µM
[33]
  GI50: 20.7 µM
  TGI: > 100 µM
[34]
  GI50: 26.1 µM
  TGI: > 100 µM
[35]
  GI50: 13.5 µM
  TGI: 55.3 µM
[36]
  GI50: 63.8 µM
  TGI: > 100 µM
[37]
  GI50: 16.9 µM
  TGI: 42.3 µM
[38]
  GI50: 3.75 µM
  TGI: 19.7 µM
[39]
  GI50: 53.3 µM
  TGI: > 100 µM
[40]
  GI50: 7.01 µM
  TGI: > 100 µM
[41]
  GI50: 18.3 µM
  TGI: 64.2 µM
[42]
  GI50: 16.1 µM
  TGI: 59.3 µM
[43]
  GI50: 34.3 µM
  TGI: > 100 µM
[44]
  GI50: 39.7 µM
  TGI: > 100 µM
[45]
  GI50: 59.3 µM
  TGI: > 100 µM
[46]
  GI50: 11.4 µM
  TGI: > 100 µM
[47]
  GI50: 8.2 µM
  TGI: 44.9 µM
[48]
  GI50: 28.7 µM
  TGI: > 100 µM
[49]
  GI50: 17.5 µM
  TGI: 43.4 µM
[50]
  GI50: 36.6 µM
  TGI: > 100 µM
[51]
  GI50: 40.2 µM
  TGI: > 100 µM
[52]
  GI50: > 100 µM
  TGI: > 100 µM
[53]
  GI50: 14.9 µM
  TGI: > 100 µM
[54]
  GI50: 79 µM
  TGI: > 100 µM
[55]
  GI50: 28 µM
  TGI: > 100 µM
[56]
  GI50: 19.2 µM
  TGI: > 100 µM

## CN1CCN(CCCOc2cccc3nc(Nc4ccc(Cl)c(C(F)(F)F)c4)ccc23)CC1
[1]
  GI50: 1.5 µM
  TGI: 2.84 µM
[2]
  GI50: 1.99 µM
  TGI: 4.35 µM
[3]
  GI50: 1.72 µM
  TGI: 3.5 µM
[4]
  GI50: 1.6 µM
  TGI: 3.38 µM
[5]
  GI50: 1.89 µM
  TGI: 3.83 µM
[8]
  GI50: 1.52 µM
  TGI: 3.78 µM
[9]
  GI50: 2 µM
  TGI: 4.66 µM
[10]
  GI50: 0.54 µM
  TGI: 3.4 µM
[12]
  GI50: 1.56 µM
  TGI: 3.07 µM
[13]
  GI50: 1.59 µM
  TGI: 3.07 µM
[14]
  GI50: 1.46 µM
  TGI: 2.88 µM
[15]
  GI50: 1.72 µM
  TGI: 3.66 µM
[16]
  GI50: 1.39 µM
  TGI: 2.81 µM
[18]
  GI50: 1.73 µM
  TGI: 3.37 µM
[19]
  GI50: 1.85 µM
  TGI: 3.41 µM
[20]
  GI50: 1.47 µM
  TGI: 3.1 µM
[21]
  GI50: 1.8 µM
  TGI: 3.44 µM
[57]
  GI50: 2.06 µM
  TGI: 4.49 µM
[22]
  GI50: 1.81 µM
  TGI: 3.48 µM
[23]
  GI50: 1.8 µM
  TGI: 3.38 µM
[58]
  GI50: 1.82 µM
  TGI: 3.98 µM
[24]
  GI50: 1.85 µM
  TGI: 3.6 µM
[25]
  GI50: 1.74 µM
  TGI: 3.24 µM
[26]
  GI50: 1.63 µM
  TGI: 3.44 µM
[27]
  GI50: 1.62 µM
  TGI: 3.34 µM
[28]
  GI50: 1.68 µM
  TGI: 3.54 µM
[29]
  GI50: 1.02 µM
  TGI: 3.69 µM
[30]
  GI50: 1.81 µM
  TGI: 3.27 µM
[31]
  GI50: 1.78 µM
  TGI: 3.42 µM
[32]
  GI50: 1.68 µM
  TGI: 3.23 µM
[33]
  GI50: 1.22 µM
  TGI: 2.64 µM
[34]
  GI50: 1.81 µM
  TGI: 3.31 µM
[35]
  GI50: 2.73 µM
  TGI: 7.45 µM
[36]
  GI50: 1.49 µM
  TGI: 3.23 µM
[37]
  GI50: 1.5 µM
  TGI: 2.89 µM
[38]
  GI50: 1.69 µM
  TGI: 3.13 µM
[39]
  GI50: 1.91 µM
  TGI: 3.44 µM
[40]
  GI50: 2.07 µM
  TGI: 4.89 µM
[41]
  GI50: 1.85 µM
  TGI: 3.66 µM
[42]
  GI50: 1.71 µM
  TGI: 3.31 µM
[43]
  GI50: 1.58 µM
  TGI: 3.02 µM
[44]
  GI50: 1.7 µM
  TGI: 3.32 µM
[45]
  GI50: 1.72 µM
  TGI: 3.52 µM
[46]
  GI50: 1.72 µM
  TGI: 3.27 µM
[47]
  GI50: 1.97 µM
  TGI: 4.52 µM
[48]
  GI50: 1.75 µM
  TGI: 3.45 µM
[49]
  GI50: 1.72 µM
  TGI: 3.35 µM
[50]
  GI50: 1.57 µM
  TGI: 3.03 µM
[51]
  GI50: 1.64 µM
  TGI: 3.14 µM
[52]
  GI50: 1.87 µM
  TGI: 4.03 µM
[53]
  GI50: 1.83 µM
  TGI: 3.64 µM
[54]
  GI50: 1.67 µM
  TGI: 3.19 µM
[55]
  GI50: 1.41 µM
  TGI: 2.99 µM
